According to ChEMBL document CHEMBL1201862, “PubChem BioAssay data set” (2004):
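Briefly, cells in 96-well plates were exposed to five compound concentrations for 48 h, and endpoints were estimated by linear interpolation. Here, GI50 denotes the concentration required for 50% inhibition of growth.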 The source made the active and inactive calls. Rule as the data show it: active = GI50 up to about 1.1 µM and inactive = higher.

Experiments:
Experiment in all cases: NCI-60 cell line screen, 48 h
T47D = tested on: T47D
CCRF-CEM = tested on: CCRF-CEM
SF-295 = tested on: SF-295
NCI-H23 = tested on: NCI-H23
NCI/ADR-RES = tested on: NCI/ADR-RES
HL-60 = tested on: HL-60
MDA-MB-435 = tested on: MDA-MB-435
SNB-19 = tested on: SNB-19
HCC 2998 = tested on: HCC 2998
HCT-116 = tested on: HCT-116
MDA-MB-231 = tested on: MDA-MB-231
UACC-62 = tested on: UACC-62
A549 = tested on: A549
OVCAR-8 = tested on: OVCAR-8
SW-620 = tested on: SW-620
ACHN = tested on: ACHN
UO-31 = tested on: UO-31
HOP-92 = tested on: HOP-92
DU-145 = tested on: DU-145
HCT-15 = tested on: HCT-15
MDA-N = tested on: MDA-N
HT-29 = tested on: HT-29
MOLT-4 = tested on: MOLT-4
HOP-62 = tested on: HOP-62
EKVX = tested on: EKVX
NCI-H522 = tested on: NCI-H522
Malme-3M = tested on: Malme-3M
OVCAR-3 = tested on: OVCAR-3
SF-539 = tested on: SF-539
NCI-H226 = tested on: NCI-H226
RPMI-8226 = tested on: RPMI-8226
SK-MEL-2 = tested on: SK-MEL-2
UACC-257 = tested on: UACC-257
TK-10 = tested on: TK-10
Hs-578T = tested on: Hs-578T
CAKI-1 = tested on: CAKI-1
IGROV-1 = tested on: IGROV-1
SK-MEL-28 = tested on: SK-MEL-28
COLO 205 = tested on: COLO 205
U-251 = tested on: U-251
NCI-H460 = tested on: NCI-H460
SK-OV-3 = tested on: SK-OV-3
SN12C = tested on: SN12C
OVCAR-5 = tested on: OVCAR-5
A498 = tested on: A498
SNB-75 = tested on: SNB-75
RXF 393 = tested on: RXF 393
M14 = tested on: M14
786-0 = tested on: 786-0
LOX IMVI = tested on: LOX IMVI
MCF7 = tested on: MCF7
OVCAR-4 = tested on: OVCAR-4
SF-268 = tested on: SF-268
KM12 = tested on: KM12
BT-549 = tested on: BT-549
SK-MEL-5 = tested on: SK-MEL-5
PC-3 = tested on: PC-3
K562 = tested on: K562
SR = tested on: SR

Q: For `C/C(=N\O)C1CC(CC(=O)O)C1(C)C` (stereo not drawn), which GI50 (T47D) is on record?
A: > 100 µM (inactive)

Q: What about the GI50 (CCRF-CEM) of the same molecule?
A: > 100 µM (inactive)

Q: What about the GI50 (SF-295) of the same molecule?
A: > 100 µM (inactive)

Q: And the GI50 (NCI-H23)?
A: > 100 µM (inactive)

Q: What about the GI50 (NCI/ADR-RES) of the same molecule?
A: > 100 µM (inactive)

Q: What about the GI50 (HL-60) of the same molecule?
A: > 100 µM (inactive)

Q: What about the GI50 (MDA-MB-435) of the same molecule?
A: > 100 µM (inactive)

Q: And the GI50 (SNB-19)?
A: > 100 µM (inactive)

Q: What about the GI50 (HCC 2998) of the same molecule?
A: 90.2 µM (inactive)

Q: What about the GI50 (HCT-116) of the same molecule?
A: > 100 µM (inactive)

Q: And the GI50 (MDA-MB-231)?
A: > 100 µM (inactive)

Q: And the GI50 (UACC-62)?
A: > 100 µM (inactive)

Q: And the GI50 (A549)?
A: > 100 µM (inactive)

Q: And the GI50 (OVCAR-8)?
A: > 100 µM (inactive)

Q: And the GI50 (SW-620)?
A: > 100 µM (inactive)

Q: What about the GI50 (ACHN) of the same molecule?
A: > 100 µM (inactive)

Q: And the GI50 (UO-31)?
A: > 100 µM (inactive)

Q: And the GI50 (HOP-92)?
A: > 100 µM (inactive)

Q: What about the GI50 (DU-145) of the same molecule?
A: > 100 µM (inactive)

Q: And the GI50 (HCT-15)?
A: > 100 µM

Q: And the GI50 (MDA-N)?
A: > 100 µM (inactive)

Q: And the GI50 (HT-29)?
A: > 100 µM (inactive)

Q: And the GI50 (MOLT-4)?
A: > 100 µM (inactive)

Q: What about the GI50 (HOP-62) of the same molecule?
A: > 100 µM (inactive)

Q: And the GI50 (EKVX)?
A: > 100 µM (inactive)

Q: And the GI50 (NCI-H522)?
A: > 100 µM (inactive)

Q: What about the GI50 (Malme-3M) of the same molecule?
A: > 100 µM (inactive)

Q: And the GI50 (OVCAR-3)?
A: 10.2 µM (inactive)

Q: What about the GI50 (SF-539) of the same molecule?
A: > 100 µM (inactive)

Q: What about the GI50 (NCI-H226) of the same molecule?
A: > 100 µM (inactive)

Q: What about the GI50 (RPMI-8226) of the same molecule?
A: > 100 µM (inactive)

Q: What about the GI50 (SK-MEL-2) of the same molecule?
A: > 100 µM (inactive)

Q: What about the GI50 (UACC-257) of the same molecule?
A: > 100 µM (inactive)

Q: What about the GI50 (TK-10) of the same molecule?
A: > 100 µM (inactive)

Q: And the GI50 (Hs-578T)?
A: > 100 µM (inactive)

Q: And the GI50 (CAKI-1)?
A: > 100 µM (inactive)

Q: What about the GI50 (IGROV-1) of the same molecule?
A: > 100 µM (inactive)

Q: What about the GI50 (SK-MEL-28) of the same molecule?
A: > 100 µM (inactive)

Q: And the GI50 (COLO 205)?
A: > 100 µM (inactive)

Q: What about the GI50 (U-251) of the same molecule?
A: > 100 µM (inactive)

Q: What about the GI50 (NCI-H460) of the same molecule?
A: > 100 µM (inactive)

Q: And the GI50 (SK-OV-3)?
A: > 100 µM (inactive)

Q: And the GI50 (SN12C)?
A: > 100 µM (inactive)

Q: What about the GI50 (OVCAR-5) of the same molecule?
A: > 100 µM (inactive)

Q: What about the GI50 (A498) of the same molecule?
A: > 100 µM (inactive)

Q: What about the GI50 (SNB-75) of the same molecule?
A: > 100 µM (inactive)

Q: What about the GI50 (RXF 393) of the same molecule?
A: > 100 µM (inactive)

Q: What about the GI50 (M14) of the same molecule?
A: > 100 µM (inactive)

Q: What about the GI50 (786-0) of the same molecule?
A: > 100 µM (inactive)

Q: What about the GI50 (LOX IMVI) of the same molecule?
A: > 100 µM (inactive)

Q: And the GI50 (MCF7)?
A: > 100 µM (inactive)

Q: And the GI50 (OVCAR-4)?
A: > 100 µM (inactive)

Q: What about the GI50 (SF-268) of the same molecule?
A: > 100 µM (inactive)

Q: What about the GI50 (KM12) of the same molecule?
A: > 100 µM (inactive)

Q: What about the GI50 (BT-549) of the same molecule?
A: > 100 µM (inactive)

Q: And the GI50 (SK-MEL-5)?
A: > 100 µM (inactive)

Q: And the GI50 (PC-3)?
A: > 100 µM (inactive)

Q: And the GI50 (K562)?
A: > 100 µM (inactive)

Q: What about the GI50 (SR) of the same molecule?
A: > 100 µM (inactive)

Q: For `c1ccc(/C(=N/Nc2ccccn2)c2cccnn2)cc1`, which GI50 (T47D) is on record?
A: 9.16 µM (inactive)

Q: What about the GI50 (CCRF-CEM) of the same molecule?
A: 0.767 µM (active)

Q: And the GI50 (SF-295)?
A: 3.11 µM (inactive)

Q: And the GI50 (NCI-H23)?
A: 2.91 µM (inactive)

Q: What about the GI50 (NCI/ADR-RES) of the same molecule?
A: 2.17 µM (inactive)

Q: And the GI50 (HL-60)?
A: 3.61 µM (inactive)

Q: What about the GI50 (MDA-MB-435) of the same molecule?
A: 4.73 µM (inactive)

Q: And the GI50 (SNB-19)?
A: 10.3 µM (inactive)

Q: And the GI50 (HCC 2998)?
A: 5.37 µM (inactive)

Q: What about the GI50 (HCT-116) of the same molecule?
A: 2.28 µM (inactive)

Q: And the GI50 (MDA-MB-231)?
A: 2.57 µM (inactive)

Q: What about the GI50 (UACC-62) of the same molecule?
A: 3.44 µM (inactive)

Q: And the GI50 (A549)?
A: 2.43 µM (inactive)

Q: And the GI50 (OVCAR-8)?
A: 1.87 µM (inactive)

Q: And the GI50 (SW-620)?
A: 3.44 µM (inactive)

Q: What about the GI50 (ACHN) of the same molecule?
A: 0.998 µM (active)

Q: And the GI50 (UO-31)?
A: 0.885 µM (active)

Q: And the GI50 (HOP-92)?
A: 5.48 µM (inactive)

Q: And the GI50 (DU-145)?
A: 2.62 µM (inactive)

Q: And the GI50 (HCT-15)?
A: 0.824 µM

Q: What about the GI50 (MDA-N) of the same molecule?
A: 7.57 µM (inactive)

Q: And the GI50 (HT-29)?
A: 1.16 µM (inactive)

Q: And the GI50 (MOLT-4)?
A: 0.632 µM (active)

Q: What about the GI50 (HOP-62) of the same molecule?
A: 2.85 µM (inactive)

Q: What about the GI50 (EKVX) of the same molecule?
A: 1.74 µM (inactive)

Q: And the GI50 (NCI-H522)?
A: 0.441 µM (active)

Q: What about the GI50 (Malme-3M) of the same molecule?
A: 5.4 µM (inactive)

Q: And the GI50 (OVCAR-3)?
A: 1.92 µM (inactive)

Q: And the GI50 (SF-539)?
A: 2.74 µM (inactive)

Q: And the GI50 (NCI-H226)?
A: 1.07 µM (active)

Q: And the GI50 (RPMI-8226)?
A: 2.17 µM (inactive)

Q: What about the GI50 (SK-MEL-2) of the same molecule?
A: 12.7 µM (inactive)

Q: What about the GI50 (UACC-257) of the same molecule?
A: 3.94 µM (inactive)

Q: What about the GI50 (TK-10) of the same molecule?
A: 98.6 µM (inactive)

Q: And the GI50 (Hs-578T)?
A: 11.8 µM (inactive)

Q: What about the GI50 (CAKI-1) of the same molecule?
A: 1.75 µM (inactive)

Q: What about the GI50 (IGROV-1) of the same molecule?
A: 1.79 µM (inactive)

Q: What about the GI50 (SK-MEL-28) of the same molecule?
A: > 34.2 µM (inactive)

Q: And the GI50 (COLO 205)?
A: 0.741 µM (active)

Q: What about the GI50 (U-251) of the same molecule?
A: 4.21 µM (inactive)

Q: And the GI50 (NCI-H460)?
A: 1.34 µM (inactive)

Q: What about the GI50 (SK-OV-3) of the same molecule?
A: 2.58 µM (inactive)

Q: What about the GI50 (SN12C) of the same molecule?
A: 2.15 µM (inactive)

Q: And the GI50 (OVCAR-5)?
A: 7.73 µM (inactive)

Q: And the GI50 (A498)?
A: > 25.3 µM (inactive)

Q: What about the GI50 (SNB-75) of the same molecule?
A: 2.78 µM (inactive)

Q: And the GI50 (RXF 393)?
A: 15.7 µM (inactive)

Q: And the GI50 (M14)?
A: 1.45 µM (inactive)

Q: And the GI50 (786-0)?
A: 1.38 µM (inactive)

Q: What about the GI50 (LOX IMVI) of the same molecule?
A: 2.07 µM (inactive)

Q: What about the GI50 (MCF7) of the same molecule?
A: 3.43 µM (inactive)

Q: What about the GI50 (OVCAR-4) of the same molecule?
A: > 84.5 µM (inactive)

Q: What about the GI50 (SF-268) of the same molecule?
A: 0.853 µM (active)

Q: And the GI50 (KM12)?
A: 2.72 µM (inactive)

Q: What about the GI50 (BT-549) of the same molecule?
A: 13.9 µM (inactive)

Q: And the GI50 (SK-MEL-5)?
A: 2.35 µM (inactive)

Q: What about the GI50 (PC-3) of the same molecule?
A: 5.86 µM (inactive)

Q: And the GI50 (K562)?
A: 1.47 µM (inactive)

Q: And the GI50 (SR)?
A: 0.522 µM (active)
